Where “and” joins values, the source holds several entries; their conditions need not be identical. Identical values can stand only once.
How the values were obtained:
Chymotrypsinogen A = Chymotrypsinogen A (Bos taurus, UniProt P00766); test: Binding affinity against alpha-chymotrypsin
[1] = molecular target: Chymotrypsinogen A (Bos taurus) (UniProt P00766)

Ki (Chymotrypsinogen A): 9.95 mM and 3.23 mM
Kiact [1]: 5.24 min⁻¹
Structure (SMILES): COC(=O)[C@@H](Cc1ccccc1)[C@H]1CO1

Reference: ChEMBL document CHEMBL1127766, “Stereochemical approach for enzyme inhibitor design” (Bioorg Med Chem Lett, 1994)
